Laboratory results published in PMC7802075 (ACS Infectious Diseases, 2020).
Where two headings read alike, the source gives them in different places.

Target: T1, LmjIPCS (inositol phosphorylceramide synthase from L. major) (Leishmania major, UniProt E9AFX2)
T1 sequence (E9AFX2 1-338): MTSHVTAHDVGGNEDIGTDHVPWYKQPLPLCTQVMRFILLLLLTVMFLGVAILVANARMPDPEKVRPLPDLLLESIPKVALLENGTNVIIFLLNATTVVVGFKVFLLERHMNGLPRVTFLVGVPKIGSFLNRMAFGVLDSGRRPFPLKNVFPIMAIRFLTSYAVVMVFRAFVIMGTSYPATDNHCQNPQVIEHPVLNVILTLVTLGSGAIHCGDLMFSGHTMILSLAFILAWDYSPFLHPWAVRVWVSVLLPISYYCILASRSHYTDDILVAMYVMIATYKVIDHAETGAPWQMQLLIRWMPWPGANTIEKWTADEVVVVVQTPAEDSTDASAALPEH
Experiment: biochemical
Format: biochemical
Set-up: inhibition: dose or concentration left out as unconfirmed
Conditions: for inhibition: read-out: inhibition LmjIPCS; for inhibition at 20000 µM: read-out: 20mM inhibition LmjIPCS

[1] = NINDS set screen, single concentration printed as 20mM

## CN1Cc2c(N)cccc2C(c2ccccc2)C1 (stereo not drawn) [NOMIFENSINE]
  inhibition: 5%

## CO[C@H]1[C@H](O)[C@H](O[C@H]2CC[C@@]3(C=O)[C@H](CC[C@@H]4[C@@H]3CC[C@]3(C)[C@@H](C5=CC(=O)OC5)CC[C@]43O)C2)O[C@@H](C)[C@@H]1O [PERUVOSIDE]
  inhibition at 20000 µM: 12%

## N=C(N)NC(=N)Nc1ccccc1 [1-PHENYLBIGUANIDE]
Single concentration 20mM as printed, screening of NINDS set, sheet Screen 1
  20mM inhibition LmjIPCS: 11%

## CCCN(CCC)S(=O)(=O)c1ccc(C(=O)O)cc1 [PROBENECID]
NINDS set screen
  inhibition: 13%

## CC(C)NCC(O)COc1ccc(CC(N)=O)cc1 (stereo not drawn) [ATENOLOL]
  inhibition at 20000 µM: -6%

## Sc1nc2ccccc2s1 [2-MERCAPTOBENZOTHIAZOLE]
  inhibition at 20000 µM: 24%

## CC[C@H]1OC(=O)C[C@@H](O)[C@H](C)[C@@H](O[C@@H]2O[C@H](C)[C@@H](O[C@H]3C[C@@](C)(O)[C@@H](O)[C@H](C)O3)[C@H](N(C)C)[C@H]2O)[C@@H](CC=O)C[C@@H](C)C(=O)/C=C/C(C)=C/[C@@H]1CO[C@@H]1O[C@H](C)[C@@H](O)[C@@H](OC)[C@H]1OC [TYLOSIN]
  inhibition at 20000 µM: 5%

## CO[C@@H]1C[C@@H](C[C@H]2CC[C@H](C)[C@H]([C@@H](C)C(=O)O)O2)O[C@]2(O[C@](C)([C@H]3CC[C@@](C)([C@@H]4O[C@@H]([C@H]5O[C@@](O)(CO)[C@H](C)C[C@@H]5C)C[C@@H]4C)O3)C[C@H]2C)[C@@H]1C [NIGERICIN]
  inhibition at 20000 µM: -7.41%

## Cn1c(=O)[nH]c(=O)c2[nH]cnc21 [3-METHYLXANTHINE]
  inhibition at 20000 µM: 12%

## C/C=C(/C(=C/C)c1ccc(O)cc1)c1ccc(O)cc1 [DIENESTROL]
  inhibition at 20000 µM: -4%

## Cc1ncc(CNC(=O)N(CCCl)N=O)c(N)n1 [NIMUSTINE]
  inhibition at 20000 µM: 20%

## CC(=O)OCC(=O)[C@H]1CC[C@H]2[C@@H]3CCC4=CC(=O)CC[C@]4(C)[C@H]3CC[C@]12C [DESOXYCORTICOSTERONE ACETATE]
  inhibition at 20000 µM: 17%

## NC(N)=Nc1nc(CSCCC(N)=NS(N)(=O)=O)cs1 [FAMOTIDINE]
  inhibition at 20000 µM: 14%

## CCOC(=O)c1ccc(N)cc1 [BENZOCAINE]
[1]
  20mM inhibition LmjIPCS: 46%

## CCCNC(C)C(=O)Nc1ccccc1C (stereo not drawn) [PRILOCAINE]
  20mM inhibition LmjIPCS: 34%

## CC(=O)Nc1ccc(OC(=O)c2ccccc2O)cc1 [ACETAMINOSALOL]
NINDS set screen
  inhibition: -0.337%

## C[C@]12CCC3c4ccc(OC(=O)CCC(=O)O)cc4CCC3C1CCC2=O (stereo partly drawn) [ESTRONE HEMISUCCINATE]
  20mM inhibition LmjIPCS: 12%

## CCC(Cc1c(I)cc(I)c(N)c1I)C(=O)O (stereo not drawn) [IOPANIC ACID]
  20mM inhibition LmjIPCS: 7.62%

## O=C(CCCN1CC=C(n2c(=O)[nH]c3ccccc32)CC1)c1ccc(F)cc1 [DROPERIDOL]
  20mM inhibition LmjIPCS: 56%

## CC(=O)OCC(=O)[C@@]1(O)[C@H](OC(C)=O)C[C@H]2[C@@H]3CCC4=CC(=O)C=C[C@]4(C)[C@@]3(F)[C@@H](O)C[C@@]21C [TRIAMCINOLONE DIACETATE]
  inhibition at 20000 µM: 10%

## O=C1c2ccccc2-c2cccc3cccc1c23 [BENZANTHRONE]
  inhibition at 20000 µM: 16%

## CC1=CC(=O)c2ccccc2C1=O [MENADIONE]
  20mM inhibition LmjIPCS: 43%

## C[C@@H]1O[C@@H](Oc2c(-c3ccc(O)c(O)c3)oc3cc(O)cc(O)c3c2=O)[C@H](O)[C@H](O)[C@H]1O [QUERCITRIN]
  inhibition at 20000 µM: 6.42%

## O=c1cc[nH]c(=S)[nH]1 [2-THIOURACIL]
  inhibition at 20000 µM: 7%

## CCOC(=O)C1=C[C@]2(CC)CCCN3CCc4c(n1c1ccccc41)[C@@H]32 [VINPOCETINE]
[1]
  20mM inhibition LmjIPCS: 36%

## C[C@H]1COc2c(N3CCN(C)CC3)c(F)cc3c(=O)c(C(=O)O)cn1c23 [LEVOFLOXACIN]
  inhibition: 11%

## O=C1C[C@@H](c2ccc(O)cc2)Oc2cc(O)cc(O)c21 [NARINGENIN]
  inhibition: 17%

## O=c1oc2c(O)c(O)cc3c(=O)oc4c(O)c(O)cc1c4c23 [ELLAGIC ACID]
NINDS set screen
  inhibition: 22%

## CCCC(C(=O)OCCN(CC)CC)(c1ccccc1)c1ccccc1 [PROADIFEN]
[1]
  20mM inhibition LmjIPCS: 36%

## COc1c(C)c2c(c(O)c1C/C=C(\C)CCC(=O)O)C(=O)OC2 [MYCOPHENOLIC ACID]
  inhibition: 4%

## Nc1ccc(/N=N/c2ccccc2)c(N)n1 [PHENAZOPYRIDINE]
[1]
  20mM inhibition LmjIPCS: 52%

## C[N+](C)(C)CCCCCC[N+](C)(C)C [HEXAMETHONIUM]
  inhibition at 20000 µM: -4%

## CC1(C)NC(=O)N(c2ccc([N+](=O)[O-])c(C(F)(F)F)c2)C1=O [NILUTAMIDE]
  inhibition at 20000 µM: 4%

## C#C[C@]1(O)CC[C@H]2[C@@H]3CCC4=Cc5oncc5C[C@]4(C)[C@H]3CC[C@@]21C [DANAZOL]
  inhibition: 19%

## c1ccc2c(c1)[nH]c1cnccc12 [NORHARMAN]
  inhibition at 20000 µM: 17%

## [H]/N=C(\N/C(=N/[H])Nc1ccc(Cl)cc1)NC(C)C [CHLOROGUANIDE]
NINDS set screen
  inhibition: 28%

## CC(C)(C)C(=O)C(Oc1ccc(Cl)cc1)n1cncn1 (stereo not drawn) [TRIADIMEFON]
  inhibition at 20000 µM: 17%

## Clc1cccc(Cl)c1N=C1NCCN1 [CLONIDINE]
  20mM inhibition LmjIPCS: 43%

## NNCCc1ccccc1 [PHENELZINE]
  inhibition at 20000 µM: 27%

## CC1(C)OC(=O)NC1=O [DIMETHADIONE]
Screening of NINDS set, sheet Screen 1
  inhibition: 6.6%

## O=C(C1CCCCC1)N1CC(=O)N2CCc3ccccc3C2C1 (stereo not drawn) [PRAZIQUANTEL]
  inhibition: -3.78%

## CCN(CC)CCNC(=O)c1cc(Br)c(N)cc1OC [BROMOPRIDE]
  inhibition: 17%

## CNC(=O)Oc1ccc2c(c1)[C@]1(C)CCN(C)[C@@H]1N2C [ESERINE]
  20mM inhibition LmjIPCS: 9%

## C=CCc1ccc(O)c(OC)c1 [EUGENOL]
  inhibition: 7%

## CC[C@@]1(O)C[C@H](O)c2c(cc3c(c2O)C(=O)c2c(O)ccc(O)c2C3=O)[C@H]1C(=O)OC [RUTILANTINONE]
  inhibition at 20000 µM: 27%

## CC(=O)O[C@]1(C(C)=O)CC[C@H]2[C@@H]3C=C(C)C4=CC(=O)CC[C@]4(C)[C@H]3CC[C@@]21C [MEGESTROL ACETATE]
  inhibition at 20000 µM: 15%

## CC12CCC3c4ccc(OCc5ccccc5)cc4CCC3C1C[C@@H](O)[C@@H]2O (stereo partly drawn) [ESTRIOL BENZYL ETHER]
[1]
  20mM inhibition LmjIPCS: 42%

## Nc1ccncc1 [AMINOPYRIDINE]
  20mM inhibition LmjIPCS: -4.7%

## C#C[C@]1(OC(C)=O)CC[C@H]2[C@@H]3CCC4=CC(=O)CC[C@@H]4[C@H]3CC[C@@]21C [NORETHINDRONE ACETATE]
  inhibition at 20000 µM: 30%

## O=C(O)CN(CCN(CC(=O)O)CC(=O)O)CC(=O)O.[Na+].[Na+].[Na+] [TRISODIUM ETHYLENEDIAMINE TETRACETATE]
NINDS set screen, single concentration 20mM as printed
  20mM inhibition LmjIPCS: -4.23%

## CC(=O)O[C@H](CC(=O)[O-])C[N+](C)(C)C [ACETYLCARNITINE]
  inhibition at 20000 µM: -17%

## O=C(CC(=O)c1ccccc1)c1ccccc1 [DIBENZOYLMETHANE]
  20mM inhibition LmjIPCS: 44%

## CC(=O)[C@@]1(O)CC[C@H]2[C@@H]3C[C@H](C)C4=CC(=O)C=C[C@]4(C)[C@@]3(F)[C@@H](O)C[C@@]21C [FLUOROMETHOLONE]
  inhibition at 20000 µM: 3%

## CCOC(=O)C1=C(O)C(=O)N(Cc2ccccc2)C1
  20mM inhibition LmjIPCS: -1.71%

## C[C@@H]1C[C@H]2[C@@H]3CCC4=CC(=O)C=C[C@]4(C)[C@@]3(F)[C@@H](O)C[C@]2(C)[C@@]1(O)C(=O)CO [DEXAMETHASONE]
  20mM inhibition LmjIPCS: 44%
  inhibition: -4%

## NCCc1ccc(O)c(O)c1 [DOPAMINE]
  inhibition at 20000 µM: -1.1%

## c1ccc2c(Cc3c[nH]c4ccccc34)c[nH]c2c1 [3,3'-DIINDOLYLMETHANE]
[1]
  20mM inhibition LmjIPCS: 37%

## CN1[C@@H]2CC[C@H]1C[C@@H](OC(=O)C(CO)c1ccccc1)C2 (stereo partly drawn) [ATROPINE]
  inhibition at 20000 µM: 26%

## C[N+](C)(C)CC(O)CC(=O)[O-] (stereo not drawn) [CARNITINE]
  inhibition: 15%

## CCCCNc1ccc(C(=O)OCCN(C)C)cc1 [TETRACAINE]
NINDS set screen
  inhibition: 18%

## CN1CCCN=C1/C=C/c1cccs1
  inhibition at 20000 µM: 20%

## CO/N=C1\CN(c2nc3c(cc2F)c(=O)c(C(=O)O)cn3C2CC2)CC1CN (stereo not drawn) [GEMIFLOXACIN]
  inhibition at 20000 µM: 25%

## CC(C)NCC(O)c1ccc(O)c(O)c1 (stereo not drawn) [ISOPROTERENOL]
  inhibition: 11%

## Cc1cccc(C)c1N=C1NCCCS1 [XYLAZINE]
  inhibition at 20000 µM: -14%

## CC[C@H]1OC(=O)[C@H](C)[C@@H](O[C@H]2C[C@@](C)(OC)[C@@H](O)[C@H](C)O2)[C@H](C)[C@@H](O[C@@H]2O[C@H](C)C[C@H](N(C)C)[C@H]2O)[C@](C)(O)C[C@@H](C)[C@@H]2N[C@@H](COCCOC)O[C@H]([C@H]2C)[C@]1(C)O [DIRITHROMYCIN]
  20mM inhibition LmjIPCS: 47%

## COc1ccc2c(c1)CC[C@@H]1[C@@H]2CC[C@]2(C)[C@@H](O)CC[C@@H]12 [ESTRADIOL METHYL ETHER]
  20mM inhibition LmjIPCS: 40%

## CCCc1ncc(C[n+]2ccccc2C)c(N)n1 [AMPROLIUM]
  20mM inhibition LmjIPCS: 44%

## C[C@@H](CO)NC(=O)[C@@H]1C=C2c3cccc4[nH]cc(c34)C[C@H]2N(C)C1 [ERGONOVINE]
  inhibition at 20000 µM: 6.33%

## O=C1CCc2cc(OCCCCc3nnnn3C3CCCCC3)ccc2N1 [CILOSTAZOL]
NINDS set screen
  inhibition: 14%

## Nc1nc2c(ncn2COCCO)c(=O)[nH]1 [ACYCLOVIR]
  inhibition at 20000 µM: 5%

## Nc1ccc(S(=O)(=O)NC(=O)c2ccccc2)cc1 [SULFABENZAMIDE]
NINDS set screen
  inhibition: -6%

## CC[C@@]1(O)C[C@H](O[C@H]2C[C@H](N(C)C)[C@H](O)[C@H](C)O2)c2c(cc3c(c2O)C(=O)c2c(O)cccc2C3=O)[C@H]1C(=O)OC [AKLAVINE]
  20mM inhibition LmjIPCS: 59%

## CC(=O)OCC1=C(C(=O)O)N2C(=O)[C@@H](NC(=O)CSc3ccncc3)[C@H]2SC1 [CEPHAPIRIN]
  20mM inhibition LmjIPCS: 47%

## OCc1ccccc1O [SALICYL ALCOHOL]
NINDS set screen
  inhibition: 23%
